# Data as given in the supplement of paper PMC11061612.
# Legend:
# Assay in all cases: combination Emax (second highest fraction inhibited in the dose matrix, 72 h); higher = more inhibition; extreme values may be limits of the assay
# IST-MES1 (Mesothelioma) = tested on: IST-MES1 (Mesothelioma)
# Summary of the method: (§1)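 After 24 hours at 37°C and 5% CO2 in 1536-well plates, cells in DMEM/F12 or RPMI plus 10% FBS received two-drug dose matrices for 72 hours. Viability came from CellTiter-Glo 2.0 luminescence and was scaled as inhibition, anchored at 0 by vehicle wells and at 1 by blank wells. Combination Emax is taken as the second-highest inhibition in the matrix, and Bliss excess as the observed combination effect less EA + EB − EA·EB, with EA and EB the single-agent effects.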
# [1] = tested on: LXF-289 (Lung Adenocarcinoma)
# Summary of the method: as §1
# [2] = tested on: SU-DHL-10 (B-Cell Non-Hodgkin's Lymphoma)
# Summary of the method: as §1
# [3] = tested on: L-1236 (Hodgkin's Lymphoma)
# Summary of the method: as §1
# [4] = tested on: SK-PN-DW (Other Solid Carcinomas)
# Summary of the method: as §1
# [5] = tested on: OPM-2 (Plasma Cell Myeloma)
# Summary of the method: as §1
# LN-229 (Glioblastoma) = tested on: LN-229 (Glioblastoma)
# Summary of the method: as §1
# [6] = tested on: TE-8 (Esophageal Squamous Cell Carcinoma)
# Summary of the method: as §1
# GB-1 (Glioblastoma) = tested on: GB-1 (Glioblastoma)
# Summary of the method: as §1
# [7] = tested on: NCI-H23 (Lung Adenocarcinoma)
# Summary of the method: as §1
# [8] = tested on: RKN (Other Solid Carcinomas)
# Summary of the method: as §1
# [9] = tested on: HEC-1 (Endometrial Carcinoma)
# Summary of the method: as §1
# WM278 (Melanoma) = tested on: WM278 (Melanoma)
# Summary of the method: as §1
# [10] = tested on: 23132-87 (Gastric Carcinoma)
# Summary of the method: as §1
# [11] = tested on: OAW-42 (Ovarian Carcinoma)
# Summary of the method: as §1
# [12] = tested on: HCT-15 (Colorectal Carcinoma)
# Summary of the method: as §1
# SF539 (Glioblastoma) = tested on: SF539 (Glioblastoma)
# Summary of the method: as §1
# [13] = tested on: SHP-77 (Small Cell Lung Carcinoma)
# Summary of the method: as §1
# [14] = tested on: FADU (Head and Neck Carcinoma)
# Summary of the method: as §1
# [15] = tested on: LK-2 (Squamous Cell Lung Carcinoma)
# Summary of the method: as §1
Compound,combination Emax (IST-MES1 (Mesothelioma)),combination Emax [1],combination Emax [2],combination Emax [3],combination Emax [4],combination Emax [5],combination Emax (LN-229 (Glioblastoma)),combination Emax [6],combination Emax (GB-1 (Glioblastoma)),combination Emax [7],combination Emax [8],combination Emax [9],combination Emax (WM278 (Melanoma)),combination Emax [10],combination Emax [11],combination Emax [12],combination Emax (SF539 (Glioblastoma)),combination Emax [13],combination Emax [14],combination Emax [15]
"Cc1c2c(nn1C)CSCc1cc(n(C)n1)CSc1cc(c3ccccc3c1)OCCCc1c(C(=O)O)n(C)c3c-2c(Cl)ccc13 [AZD5991] + Cn1cnc2c(F)c(Nc3ccc(Br)cc3Cl)c(C(=O)NOCCO)cc21 [Selumetinib] (first compound max 1 µM, 7x7, partner max 3 µM)",0.257,0.398,1,0.297,0.887,1,0.428,0.415,0.174,0.934,0.292,0.143,0.648,0.903,0.263,0.301,0.427,0.598,1,0.203
"CC(=O)Nc1cccc(-n2c(=O)n(C3CC3)c(=O)c3c(Nc4ccc(I)cc4F)n(C)c(=O)c(C)c32)c1 [Trametinib] + Cc1nc(-c2cn3c(n2)-c2ccc(-c4cnn(C(C)(C)C(N)=O)c4)cc2OCC3)n(C(C)C)n1 [Taselisib] (first compound max 1 µM, 7x7, partner max 10 µM)",0.434,0.963,0.977,0.513,0.695,1,0.803,0.782,0.845,0.686,0.544,0.346,0.983,0.636,0.969,0.756,0.989,0.459,0.837,0.608
"Cc1nc(Nc2ncc(C(=O)Nc3c(C)cccc3Cl)s2)cc(N2CCN(CCO)CC2)n1 [Dasatinib] + CC(=O)Nc1cccc(-n2c(=O)n(C3CC3)c(=O)c3c(Nc4ccc(I)cc4F)n(C)c(=O)c(C)c32)c1 [Trametinib] (first compound max 2 µM, 7x7, partner max 1 µM)",0.924,0.986,0.837,0.243,0.141,0.801,0.548,0.865,0.701,0.765,0.712,0.295,0.808,0.315,0.722,0.71,0.602,0.172,0.515,0.63
"Cn1cnc2c(F)c(Nc3ccc(Br)cc3Cl)c(C(=O)NOCCO)cc21 [Selumetinib] + CCN(CCO)CCCOc1ccc2c(Nc3cc(CC(=O)Nc4cccc(F)c4)[nH]n3)ncnc2c1 [AZD2811] (first compound max 10 µM, 7x7, partner max 1 µM)",0.269,0.514,0.738,0.289,0.572,0.356,0.286,0.347,0.117,0.484,0.352,0.0639,0.581,0.104,0.194,0.28,0.501,0.362,0.467,0.795
"Cc1c2c(nn1C)CSCc1cc(n(C)n1)CSc1cc(c3ccccc3c1)OCCCc1c(C(=O)O)n(C)c3c-2c(Cl)ccc13 [AZD5991] + C[C@@H](Nc1cc(F)cc(F)c1)c1cc(C(=O)N(C)C)cc2c(=O)cc(N3CCOCC3)oc12 [AZD8186] (first compound max 1 µM, 7x7, partner max 3 µM)",0.241,0.47,1,0.291,0.911,1,0.546,0.373,0.219,0.896,0.289,0.14,0.365,0.867,0.277,0.194,0.438,0.289,0.968,0.196
"C[C@@H](c1ccc2nccn2c1)n1nnc2ncc(-c3cnn(C)c3)nc21 [Savolitinib] + CC1(C)CCC(CN2CCN(c3ccc(C(=O)NS(=O)(=O)c4ccc(NCC5CCOCC5)c([N+](=O)[O-])c4)c(Oc4cnc5[nH]ccc5c4)c3)CC2)=C(c2ccc(Cl)cc2)C1 [Venetoclax] (first compound max 1 µM, 7x7, partner max 1 µM)",0.198,0.16,0.0782,0.416,0.221,0.246,0.0841,0.229,0.109,0.205,0.195,0.133,0.102,0.147,0.188,0.12,0.161,0.314,0.154,0.165
"COc1nnc2ccc(N3CCC(c4ccc(OCCN5CCN(C)C(=O)[C@H]5C)cc4)CC3)nn12 [AZD5153] + Cc1c2c(nn1C)CSCc1cc(n(C)n1)CSc1cc(c3ccccc3c1)OCCCc1c(C(=O)O)n(C)c3c-2c(Cl)ccc13 [AZD5991] (first compound max 1 µM, 7x7, partner max 1 µM)",0.96,0.903,1,1,0.985,1,0.629,0.705,0.288,0.997,0.495,0.942,0.484,0.87,0.615,0.75,0.638,0.544,0.975,0.413
"NC1(C(=O)N[C@@H](CCO)c2ccc(Cl)cc2)CCN(c2ncnc3[nH]ccc23)CC1 [Capivasertib] + COc1nnc2ccc(N3CCC(c4ccc(OCCN5CCN(C)C(=O)[C@H]5C)cc4)CC3)nn12 [AZD5153] (first compound max 10 µM, 7x7, partner max 1 µM)",0.45,0.811,1,1,0.74,1,0.344,0.582,0.48,0.773,0.449,0.688,0.734,0.659,0.619,0.717,0.707,0.607,0.65,0.422
"CC1(C)CCC(CN2CCN(c3ccc(C(=O)NS(=O)(=O)c4ccc(NCC5CCOCC5)c([N+](=O)[O-])c4)c(Oc4cnc5[nH]ccc5c4)c3)CC2)=C(c2ccc(Cl)cc2)C1 [Venetoclax] + COc1cc(Nc2ncc3c(n2)-c2ccc(Cl)cc2C(c2c(F)cccc2OC)=NC3)ccc1C(=O)O [Alisertib] (first compound max 1 µM, 7x7, partner max 10 µM)",0.489,0.643,0.827,0.678,0.882,0.828,0.2,0.673,0.478,0.464,0.203,0.165,0.362,0,0.652,0.537,0.454,0.719,0.351,0.848
"COc1nnc2ccc(N3CCC(c4ccc(OCCN5CCN(C)C(=O)[C@H]5C)cc4)CC3)nn12 [AZD5153] + C=CCn1c(=O)c2cnc(Nc3ccc(N4CCN(C)CC4)cc3)nc2n1-c1cccc(C(C)(C)O)n1 [AZD1775] (first compound max 1 µM, partner max 1 µM)",0.576,0.813,1,0.999,0.762,1,0.431,0.654,0.641,0.963,0.527,0.827,0.581,0.636,0.615,0.739,0.944,0.66,0.592,0.929
"CN(CCO)CC[C@H](CSc1ccccc1)Nc1ccc(S(=O)(=O)NC(=O)c2ccc(N3CCC([C@@H](O)c4ccccc4-c4ccc(Cl)cc4)CC3)cc2)cc1S(=O)(=O)C(F)(F)F [AZD4320] + CCN(CCO)CCCOc1ccc2c(Nc3cc(CC(=O)Nc4cccc(F)c4)[nH]n3)ncnc2c1 [AZD2811] (first compound max 1 µM, 7x7, partner max 1 µM)",0.213,0.471,0.759,0.961,0.719,0.693,0.185,0.583,0.117,0.216,,0.494,0.635,0.258,0.14,0.135,0.584,0.65,0.245,0.967
"CN(CCO)CC[C@H](CSc1ccccc1)Nc1ccc(S(=O)(=O)NC(=O)c2ccc(N3CCC([C@@H](O)c4ccccc4-c4ccc(Cl)cc4)CC3)cc2)cc1S(=O)(=O)C(F)(F)F [AZD4320] + C1CN(CCC1(C(=O)N[C@@H](CCO)C2=CC=C(C=C2)Cl)N)C3=NC=NC4=C3C=CN4 [Capivasertib] (first compound max 1 µM, 7x7, partner max 3 µM)",0.0905,0.173,0.97,0.965,0.482,0.955,0,0.349,0.117,0.093,0.154,0.295,0.599,0.221,0.282,0.174,0.461,,0.116,0.655
